These results are taken from patent US12065436B2, “Cardiac sarcomere inhibitors” (Cytokinetics, Inc., priority 2018, dated 2024).

pIC50: −log10 of the molar value.

This experiment addresses bovine cardiac myofibrils (full-length cardiac myosin ATPase in the native sarcomere) (Bos taurus (Bovine), UniProt Q9BE39). Kind of experiment: Skinned bovine cardiac myofibril ATPase assay (PK/LDH-coupled). Format: biochemical. The settings on record: Ca2+ activating to 75% of maximal rate; for CDMF75 IC15: concentration giving 15% inhibition; for pIC50: read-out: CDMF75 IC50. The method, then: To evaluate the effect of compounds on the ATPase activity of full-length cardiac myosin in the context of the native sarcomere, skinned myofibril assays were performed. Bovine cardiac myofibrils were obtained by homogenizing bovine cardiac left ventricular tissue in the presence of a detergent such as triton X-100. Such treatment removes membranes and a majority of the soluble cytoplasmic proteins but leaves intact the cardiac sarcomeric acto-myosin apparatus. Myofibril preparations retain the ability to hydrolyze ATP in an Ca^2+ regulated manner. ATPase activities of such myofibril preparations in the presence and absence of compounds were assayed at Ca^2+ concentrations activating to a defined fraction of the maximal rate (i.e., 25%, 75%). Small molecule agents were assessed for their ability to inhibit the steady-state ATPase activity of bovine cardiac myofibrils using pyruvate kinase and lactate dehydrogenase (PK/LDH)-coupled enzyme system. This assay regenerates myosin-produced ADP into ATP by oxidizing NADH, producing an absorbance change at 340 nm. Prior to testing small molecule agents, the bovine cardiac myofibrils were assessed for their calcium responsiveness and the calcium concentration that achieves either a 50% (pCa50) or 75% (pCa75) activation of the myofibril system was chosen as the final condition for assessing the inhibitory activity of the small molecule agents. All enzymatic activity was measured in a buffered solution containing 12 mM PIPES (piperazine-N,N′-bis(2-ethanesulfonic acid), 2 mM magnesium chloride at pH 6.8 (PM 12 buffer). Final assay conditions were 1 mg/mL of bovine cardiac myofibrils, 4 U/mL pyruvate kinase, 6 U/mL lactate dehydrogenase, 50 μM ATP, 0.1 mg/mL BSA (bovine serum albumin), 10 ppm antifoam, 1 mM DTT, 0.5 mM NADH, 1.5 mM PEP, 0.6 mM EGTA, and an amount of CaCl2) sufficient to achieve either 50% or 75% activation of the myofibril ATPase activity.

Sequence of bovine cardiac myofibrils (full-length cardiac myosin ATPase in the native sarcomere) (Q9BE39 whole entry): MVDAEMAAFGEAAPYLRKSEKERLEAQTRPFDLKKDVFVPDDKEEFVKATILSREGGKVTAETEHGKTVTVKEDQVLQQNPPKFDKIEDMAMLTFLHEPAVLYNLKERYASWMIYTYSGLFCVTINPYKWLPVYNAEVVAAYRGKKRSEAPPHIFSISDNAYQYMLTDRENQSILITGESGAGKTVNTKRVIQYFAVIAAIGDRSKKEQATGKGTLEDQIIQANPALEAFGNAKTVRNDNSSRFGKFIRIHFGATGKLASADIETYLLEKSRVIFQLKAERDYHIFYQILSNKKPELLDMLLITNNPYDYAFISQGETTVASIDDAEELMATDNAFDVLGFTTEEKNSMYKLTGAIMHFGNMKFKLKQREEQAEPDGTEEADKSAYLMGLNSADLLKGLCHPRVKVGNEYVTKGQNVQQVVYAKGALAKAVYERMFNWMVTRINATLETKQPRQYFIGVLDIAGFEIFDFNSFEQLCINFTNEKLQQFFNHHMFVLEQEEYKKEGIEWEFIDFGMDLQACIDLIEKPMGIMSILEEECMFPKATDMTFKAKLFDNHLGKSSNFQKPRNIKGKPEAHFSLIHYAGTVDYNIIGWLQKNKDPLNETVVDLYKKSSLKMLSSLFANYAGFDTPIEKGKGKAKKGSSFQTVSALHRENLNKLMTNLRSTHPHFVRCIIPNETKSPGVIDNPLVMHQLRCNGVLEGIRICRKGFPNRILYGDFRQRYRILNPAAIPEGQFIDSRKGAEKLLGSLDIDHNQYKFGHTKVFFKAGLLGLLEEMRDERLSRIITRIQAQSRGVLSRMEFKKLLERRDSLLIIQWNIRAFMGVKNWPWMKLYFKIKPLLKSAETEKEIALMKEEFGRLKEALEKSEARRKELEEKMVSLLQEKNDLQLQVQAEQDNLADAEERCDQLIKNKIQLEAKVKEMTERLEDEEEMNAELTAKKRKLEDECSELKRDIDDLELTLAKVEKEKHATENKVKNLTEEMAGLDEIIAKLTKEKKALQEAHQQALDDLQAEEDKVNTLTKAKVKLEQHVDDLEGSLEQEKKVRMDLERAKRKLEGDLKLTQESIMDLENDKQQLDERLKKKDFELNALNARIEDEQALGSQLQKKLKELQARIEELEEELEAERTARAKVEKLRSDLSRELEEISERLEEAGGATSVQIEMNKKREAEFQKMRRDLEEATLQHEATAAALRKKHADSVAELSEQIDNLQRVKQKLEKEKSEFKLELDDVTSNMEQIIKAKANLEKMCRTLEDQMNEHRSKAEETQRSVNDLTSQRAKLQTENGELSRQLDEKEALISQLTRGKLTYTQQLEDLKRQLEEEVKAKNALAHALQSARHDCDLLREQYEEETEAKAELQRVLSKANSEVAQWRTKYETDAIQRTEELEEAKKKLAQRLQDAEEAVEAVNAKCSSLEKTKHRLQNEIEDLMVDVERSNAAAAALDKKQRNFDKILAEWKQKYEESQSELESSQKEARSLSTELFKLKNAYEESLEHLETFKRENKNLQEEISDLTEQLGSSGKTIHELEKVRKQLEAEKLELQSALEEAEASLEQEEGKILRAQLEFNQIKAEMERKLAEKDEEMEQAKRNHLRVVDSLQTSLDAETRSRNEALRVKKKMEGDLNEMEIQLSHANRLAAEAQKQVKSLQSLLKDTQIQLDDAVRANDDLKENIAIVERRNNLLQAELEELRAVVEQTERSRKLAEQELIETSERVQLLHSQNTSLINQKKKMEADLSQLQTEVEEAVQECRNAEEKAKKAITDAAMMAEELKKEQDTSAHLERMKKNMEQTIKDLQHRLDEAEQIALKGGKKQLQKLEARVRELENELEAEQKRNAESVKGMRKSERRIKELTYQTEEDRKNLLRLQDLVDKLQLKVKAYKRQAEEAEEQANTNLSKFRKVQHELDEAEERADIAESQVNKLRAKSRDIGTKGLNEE
Sequence of bovine cardiac myofibrils (full-length cardiac myosin ATPase in the native sarcomere) (P85100 whole entry partner): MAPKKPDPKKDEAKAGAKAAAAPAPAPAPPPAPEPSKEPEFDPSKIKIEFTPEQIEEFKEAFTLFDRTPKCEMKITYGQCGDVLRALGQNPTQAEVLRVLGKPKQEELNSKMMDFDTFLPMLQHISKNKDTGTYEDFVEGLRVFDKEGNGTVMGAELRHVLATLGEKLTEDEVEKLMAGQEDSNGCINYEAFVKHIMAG
Sequence of bovine cardiac myofibrils (full-length cardiac myosin ATPase in the native sarcomere) (Q3SZE5 whole entry partner): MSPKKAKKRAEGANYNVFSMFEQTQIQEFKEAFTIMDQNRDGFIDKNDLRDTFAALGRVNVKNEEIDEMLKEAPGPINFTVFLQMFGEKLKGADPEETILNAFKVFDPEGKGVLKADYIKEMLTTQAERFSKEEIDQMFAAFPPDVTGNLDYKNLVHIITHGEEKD

Usually pIC50 stands for the IC50 on a negative log10 scale, so that one unit is a factor of ten. Take `O=C(N[C@@H]1CCc2cc(-c3noc(C(F)F)n3)ccc21)C1CC1` [Compound 310, (R)-N-(5-(5-(difluoromethyl)-1,2,4-oxadiazol-3-yl)-2,3-dihydro-1H-inden-1-yl)cyclopropanecarboxamide]: the “CDMF75 IC15” value worked out at 2.9 µM and the pIC50 was 4.95.

Regarding `CCc1nc(-c2ccc3c(c2)CC[C@H]3NC(=O)c2cnoc2C)no1` [Compound 564, (R)-N-(5-(5-ethyl-1,2,4-oxadiazol-3-yl)-2,3-dihydro-1H-inden-1-yl)-5-methylisoxazole-4-carboxamide], the “CDMF75 IC15” value came out at 0.2 µM and the pIC50 was 6.22.

For the compound `CCc1nc(-c2ccc3c(c2)CC[C@H]3NC(=O)OCC2CN(C(N)=O)C2)no1` [Compound 362, (1-carbamoylazetidin-3-yl)methyl (R)-(5-(5-ethyl-1,2,4-oxadiazol-3-yl)-2,3-dihydro-1H-inden-1-yl)carbamate], the “CDMF75 IC15” value was 1.9 µM and the pIC50 is 5.18.

`COCc1nc(-c2ccc3c(c2)OC[C@H]3NC(=O)c2cc(CO)ccn2)no1` [Compound 713, (S)-4-(hydroxymethyl)-N-(6-(5-(methoxymethyl)-1,2,4-oxadiazol-3-yl)-2,3-dihydrobenzofuran-3-yl)picolinamide]: the “CDMF75 IC15” value came to 2.7 µM and the negative logarithm of the IC50 (pIC50) is 4.96.

As for `CCc1nc(-c2ccc3c(c2)CC[C@H]3NC(=O)c2cnn(C[C@H](O)CO)c2)no1` [Compound 540, N-[(1R)-5-(5-ethyl(1,2,4-oxadiazol-3-yl))indanyl][1-((2S)-2,3-dihydroxypropyl)pyrazol-4-yl]carboxamide], the “CDMF75 IC15” value worked out at 0.7 µM and the pIC50 is 5.54.

On to `COC(=O)Cc1nc(-c2ccc3c(c2)CC[C@H]3NC(=O)c2cnn(C)c2)no1` [Compound 544, methyl 2-(3-{(1R)-1-[(1-methylpyrazol-4-yl)carbonylamino]indan-5-yl}-1,2,4-oxadiazol-5-yl)acetate], for which the “CDMF75 IC15” value is 34.9 µM and the pIC50 was 4.41.

As for `Cc1cc(-c2ccc3c(c2)OC[C@H]3NC(=O)c2nnn(C)n2)no1` [Compound 364, (S)-2-methyl-N-(6-(5-methylisoxazol-3-yl)-2,3-dihydrobenzofuran-3-yl)-2H-tetrazole-5-carboxamide], the “CDMF75 IC15” value is 1.6 µM and the pIC50 is 5.17.

`Cn1cnnc1C(=O)N[C@@H]1CCc2cc(-c3noc(C(F)F)n3)ccc21` [Compound 165, (R)-N-(5-(5-(difluoromethyl)-1,2,4-oxadiazol-3-yl)-2,3-dihydro-1H-inden-1-yl)-4-methyl-4H-1,2,4-triazole-3-carboxamide]: the “CDMF75 IC15” value amounted to 4.6 µM and the pIC50 is 4.63.

Turning to `Cc1nc(-c2ccc3c(c2)CC[C@H]3NC(=O)c2cccc([C@@H](C)O)c2)no1` [Compound 726, 3-((R)-1-hydroxyethyl)-N-((R)-5-(5-methyl-1,2,4-oxadiazol-3-yl)-2,3-dihydro-1H-inden-1-yl)benzamide], the “CDMF75 IC15” value is 1.2 µM and the pIC50 was 5.22.

Take `Cc1cc(C(=O)NC2CCc3cc(-c4noc(C)n4)ccc32)ccn1` (stereo not shown) [Compound 3, 2-methyl-N-(5-(5-methyl-1,2,4-oxadiazol-3-yl)-2,3-dihydro-1H-inden-1-yl)isonicotinamide]: the “CDMF75 IC15” value was 1.8 µM and the pIC50 was 5.15.

Regarding `CCc1nc(-c2ccc3c(c2)CC[C@H]3NC(=O)c2ccncc2)no1` [Compound 628, (R)-N-(5-(5-ethyl-1,2,4-oxadiazol-3-yl)-2,3-dihydro-1H-inden-1-yl)isonicotinamide], the “CDMF75 IC15” value turned out to be 0.3 µM and the pIC50 is 6.00.

Consider `CC(C)c1nc(-c2ccc3c(c2)CC[C@H]3NC(=O)c2nnn(Cc3ccccc3)n2)no1` [Compound 500, (R)-2-benzyl-N-(5-(5-isopropyl-1,2,4-oxadiazol-3-yl)-2,3-dihydro-1H-inden-1-yl)-2H-tetrazole-5-carboxamide], for which the “CDMF75 IC15” value was 1.0 µM and the pIC50 was 5.19.

Turning to `CCc1nc(-c2ccc3c(c2)CC[C@H]3NC(=O)[C@@H]2CCNC(=O)C2)no1` [Compound 351, (R)-N-((R)-5-(5-ethyl-1,2,4-oxadiazol-3-yl)-2,3-dihydro-1H-inden-1-yl)-2-oxopiperidine-4-carboxamide], the “CDMF75 IC15” value was 18.8 µM and the pIC50 was less than 4.41.

For the compound `CCc1nc(-c2ccc3c(c2)CC[C@H]3NC(=O)c2cnn(C3CNC3)c2)no1` [Compound 484, (R)-1-(azetidin-3-yl)-N-(5-(5-ethyl-1,2,4-oxadiazol-3-yl)-2,3-dihydro-1H-inden-1-yl)-1H-pyrazole-4-carboxamide], the “CDMF75 IC15” value is 39.2 µM and the pIC50 is 4.41.

Take `[2H]C([2H])([2H])c1noc(-c2ccc3c(c2)CC[C@H]3NC(=O)c2ccnn2C)n1` [Compound 273, (R)-1-methyl-N-(5-(3-(methyl-d3)-1,2,4-oxadiazol-5-yl)-2,3-dihydro-1H-inden-1-yl)-1H-pyrazole-5-carboxamide]: the “CDMF75 IC15” value was 0.7 µM and the pIC50 was 5.62.

`CCc1nc(-c2ccc3c(c2)CC[C@H]3NC(=O)c2cnn(CC3COC3)c2)no1` [Compound 506, (R)-N-(5-(5-ethyl-1,2,4-oxadiazol-3-yl)-2,3-dihydro-1H-inden-1-yl)-1-(oxetan-3-ylmethyl)-1H-pyrazole-4-carboxamide]: the “CDMF75 IC15” value was found to be 4.5 µM and the pIC50 was 4.70.

Consider `Cn1cc(C(=O)N[C@@H]2CCc3cc(-c4nc(C(F)F)no4)ccc32)cn1` [Compound 276, (R)-N-(5-(3-(difluoromethyl)-1,2,4-oxadiazol-5-yl)-2,3-dihydro-1H-inden-1-yl)-1-methyl-1H-pyrazole-4-carboxamide], for which the “CDMF75 IC15” value came to 2.6 µM and the pIC50 was 5.00.

Take `Cc1ccnc(C(=O)NC2CCc3cc(-c4noc(C)n4)ccc32)c1` (stereo not shown) [Compound 68, 4-methyl-N-(5-(5-methyl-1,2,4-oxadiazol-3-yl)-2,3-dihydro-1H-inden-1-yl)picolinamide]: the “CDMF75 IC15” value was found to be 1.6 µM and the pIC50 was 5.21.

As to `Cc1nn(CCO)cc1C(=O)N[C@@H]1CCc2cc(-c3noc(C(F)F)n3)ccc21` [Compound 686, (R)-N-(5-(5-(difluoromethyl)-1,2,4-oxadiazol-3-yl)-2,3-dihydro-1H-inden-1-yl)-1-(2-hydroxyethyl)-3-methyl-1H-pyrazole-4-carboxamide], the “CDMF75 IC15” value worked out at 0.9 µM and the pIC50 is 5.51.

In the case of `Cc1nc(-c2ccc3c(c2)OCC3NC(=O)c2ccnn2C)no1` (stereo not shown) [Compound 121, 1-methyl-N-(6-(5-methyl-1,2,4-oxadiazol-3-yl)-2,3-dihydrobenzofuran-3-yl)-1H-pyrazole-5-carboxamide], the “CDMF75 IC15” value was 1.0 µM and the pIC50 was 5.51.

Regarding `Cn1nccc1C(=O)N[C@@H]1CCc2cc(-c3ccccn3)ccc21` [Compound 367, (R)-1-methyl-N-(5-(pyridin-2-yl)-2,3-dihydro-1H-inden-1-yl)-1H-pyrazole-5-carboxamide], the “CDMF75 IC15” value stood at 13.9 µM and the pIC50 was less than 4.41.

With `COCc1nc(-c2ccc3c(c2)CCC3NC(=O)c2cn(C)nc2C)no1` (stereo not shown) [Compound 76, N-(5-(5-(methoxymethyl)-1,2,4-oxadiazol-3-yl)-2,3-dihydro-1H-inden-1-yl)-1,3-dimethyl-1H-pyrazole-4-carboxamide], the “CDMF75 IC15” value was determined as 1.7 µM and the pIC50 was 5.21.

Turning to `O=C(NC1CCc2cc(-c3noc(C(F)F)n3)ccc21)c1ccccc1` (stereo not shown) [Compound 4, N-(5-(5-(difluoromethyl)-1,2,4-oxadiazol-3-yl)-2,3-dihydro-1H-inden-1-yl)benzamide], the “CDMF75 IC15” value turned out to be 0.43 µM and the pIC50 is 5.80.

For the compound `CCc1nc(-c2ccc3c(c2)OC[C@H]3NC(=O)OC)no1` [Compound 349, methyl (S)-(6-(5-ethyl-1,2,4-oxadiazol-3-yl)-2,3-dihydrobenzofuran-3-yl)carbamate], the “CDMF75 IC15” value was 0.3 µM and the pIC50 is 6.05.

On to `O=C(N[C@@H]1COc2cc(-c3noc(C(F)F)n3)ccc21)c1cccc(CO)c1` [Compound 701, (S)-N-(6-(5-(difluoromethyl)-1,2,4-oxadiazol-3-yl)-2,3-dihydrobenzofuran-3-yl)-3-(hydroxymethyl)benzamide], for which the “CDMF75 IC15” value amounted to 0.3 µM and the pIC50 is 5.96.

Take `Cc1nc(-c2ccc3c(c2)OC[C@H]3NC(=O)c2ocnc2C)no1` [Compound 454, (S)-4-methyl-N-(6-(5-methyl-1,2,4-oxadiazol-3-yl)-2,3-dihydrobenzofuran-3-yl)oxazole-5-carboxamide]: the “CDMF75 IC15” value stood at 0.5 µM and the pIC50 was 5.74.
